US8609653B2, “Azaindole compounds and methods for treating HIV” (priority 2011, dated 2013)

The molecules below were run on HIV (assay: MT4 assay: antiviral HIV activity in MT-4 cells). Conditions: Human immunodeficiency virus 1, MT4, 96 h, read-out: HIV MT4 Assay IC50 (μM), HTLV-1 transformed cell line MT-4; read-out 96 hours later with cell titer glo; 10 point dose response.
Type: cell-based
Method: Antiviral HIV activity and cytotoxicity values for compounds of the invention from Table 1 were measured in parallel in the HTLV-1 transformed cell line MT-4 based on the method previously described (Hazen et al., 2007, In vitro antiviral activity of the novel, tyrosyl-based human immunodeficiency virus (HIV) type 1 protease inhibitor brecanavir (GW640385) in combination with other antiretrovirals and against a panel of protease inhibitor-resistant HIV (Hazen et al., “In vitro antiviral activity of the novel, tyrosyl-based human immunodeficiency virus (HIV) type 1 protease inhibitor brecanavir (GW640385) in combination with other antiretrovirals and against a panel of protease inhibitor-resistant HIV”, Antimicrob. Agents Chemother. 2007, 51: 3147-3154; and Pauwels et al., “Sensitive and rapid assay on MT-4 cells for the detection of antiviral compounds against the AIDS virus”, J. of Virological Methods 1987, 16: 171-185).
Luciferase activity was measured 96 hours later by adding a cell titer glo (Promega, Madison, Wis.). Percent inhibition of cell protection data was plotted relative to no compound control. Under the same condition, cytotoxicity of the compounds was determined using cell titer Glo™ (Promega, Madison, Wis.). IC50s were determined from a 10 point dose response curve using 3-4-fold serial dilution for each compound, which spans a concentration range>1000 fold.
These values are plotted against the molar compound concentrations using the standard four parameter logistic equation: y=((Vmax*x^n)/(K^n+x^n))+Y2
Y2=minimum y n=slope factor
Vmax=maximum y x=compound concentration [M]
In the case of `Cc1ccc(-c2c(C(OC(C)(C)C)C(=O)O)c(C)nc3c2ccn3Cc2ccc(Cl)cc2F)cc1` (centres unmarked) [Example 23, 2-(tert-butoxy)-2-(1-(4-chloro-2-fluorobenzyl)-6-methyl-4-(p-tolyl)-1H-pyrrolo[2,3-b]pyridin-5-yl)acetic acid], the IC50 is reported as 0.27 µM. `Cc1ccc(-c2c(C(OC(C)(C)C)C(=O)O)c(C)nc3c2ccn3Cc2ccc(F)cc2F)cc1` (centres unmarked) [Example 24, 2-(tert-butoxy)-2-(1-(2,4-difluorobenzyl)-6-methyl-4-(p-tolyl)-1H-pyrrolo[2,3-b]pyridin-5-yl)acetic acid] gave an IC50 of 0.125 µM. For `Cc1ccc(-c2c(C(OC(C)(C)C)C(=O)O)c(C)nc3c2ccn3Cc2ccc(F)c(C)c2)cc1` (centres unmarked) [Example 25, 2-(tert-butoxy)-2-(1-(4-fluoro-3-methylbenzyl)-6-methyl-4-(p-tolyl)-1H-pyrrolo[2,3-b]pyridin-5-yl)acetic acid], the IC50 was 0.14 µM. For `Cc1ccc(-c2c(C(OC(C)(C)C)C(=O)O)c(C)nc3c2ccn3Cc2c(F)cc(F)cc2F)cc1` (centres unmarked) [Example 26, 2-(tert-butoxy)-2-(6-methyl-4-(p-tolyl)-1-(2,4,6-trifluorobenzyl)-1H-pyrrolo[2,3-b]pyridin-5-yl)acetic acid], the IC50 was 0.12 µM. With `Cc1nc2c(ccn2Cc2ccc(F)cc2)c(-c2ccc3c(c2)CCCO3)c1C(OC(C)(C)C)C(=O)O` (centres unmarked) [Example 27, 2-(tert-butoxy)-2-(4-(chroman-6-yl)-1-(4-fluorobenzyl)-6-methyl-1H-pyrrolo[2,3-b]pyridin-5-yl)acetic acid] the IC50 was 0.08 µM. With `Cc1nc2c(ccn2Cc2ccc(F)c(F)c2)c(-c2ccc3c(c2)CCCO3)c1[C@@H](OC(C)(C)C)C(=O)O` [Example 28, (R)-2-(tert-butoxy)-2-(4-(chroman-6-yl)-1-(3,4-difluorobenzyl)-6-methyl-1H-pyrrolo[2,3-b]pyridin-5-yl)acetic acid] the IC50 was 6.56 µM. With `Cc1nc2c(ccn2Cc2ccc(F)c(F)c2)c(-c2ccc3c(c2)CCCO3)c1[C@H](OC(C)(C)C)C(=O)O` [Example 29, (S)-2-(tert-butoxy)-2-(4-(chroman-6-yl)-1-(3,4-difluorobenzyl)-6-methyl-1H-pyrrolo[2,3-b]pyridin-5-yl)acetic acid] the IC50 was 0.024 µM. Molecule `Cc1cc(Cn2ccc3c(-c4ccc5c(c4)CCCO5)c(C(OC(C)(C)C)C(=O)O)c(C)nc32)ccc1F` (centres unmarked) [Example 30, 2-(tert-butoxy)-2-(4-(chroman-6-yl)-1-(4-fluoro-3-methylbenzyl)-6-methyl-1H-pyrrolo[2,3-b]pyridin-5-yl)acetic acid] has an IC50 of 0.07 µM. Work on `Cc1nc2c(ccn2Cc2ccc(F)cc2Cl)c(-c2ccc3c(c2)CCCO3)c1C(OC(C)(C)C)C(=O)O` (centres unmarked) [Example 31, 2-(tert-butoxy)-2-(1-(2-chloro-4-fluorobenzyl)-4-(chroman-6-yl)-6-methyl-1H-pyrrolo[2,3-b]pyridin-5-yl)acetic acid] yielded an IC50 of 0.04 µM. With `Cc1nc2c(ccn2Cc2cc(F)c(F)c(F)c2)c(-c2ccc3c(c2)CCCO3)c1C(OC(C)(C)C)C(=O)O` (centres unmarked) [Example 32, 2-(tert-butoxy)-2-(4-(chroman-6-yl)-6-methyl-1-(3,4,5-trifluorobenzyl)-1H-pyrrolo[2,3-b]pyridin-5-yl)acetic acid] the IC50 was 0.1 µM. `Cc1nc2c(ccn2Cc2cc(F)ccc2F)c(-c2ccc3c(c2)CCCO3)c1C(OC(C)(C)C)C(=O)O` (centres unmarked) [Example 33, 2-(tert-butoxy)-2-(4-(chroman-6-yl)-1-(2,5-difluorobenzyl)-6-methyl-1H-pyrrolo[2,3-b]pyridin-5-yl)acetic acid] showed an IC50 of 0.096 µM. For `Cc1nc2c(ccn2Cc2cccc(F)c2F)c(-c2ccc3c(c2)CCCO3)c1C(OC(C)(C)C)C(=O)O` (centres unmarked) [Example 34, 2-(tert-butoxy)-2-(4-(chroman-6-yl)-1-(2,3-difluorobenzyl)-6-methyl-1H-pyrrolo[2,3-b]pyridin-5-yl)acetic acid], the IC50 was 0.06 µM. Work on `Cc1ccc(Cn2ccc3c(-c4ccc5c(c4)CCCO5)c(C(OC(C)(C)C)C(=O)O)c(C)nc32)cc1F` (centres unmarked) [Example 35, 2-(tert-butoxy)-2-(4-(chroman-6-yl)-1-(3-fluoro-4-methylbenzyl)-6-methyl-1H-pyrrolo[2,3-b]pyridin-5-yl)acetic acid] yielded an IC50 of 0.42 µM. With `Cc1ccc(-c2c([C@@H](OC(C)(C)C)C(=O)O)c(C)nc3c2ccn3Cc2ccc(F)cc2F)cc1` [Example 36, (R)-2-(tert-butoxy)-2-(1-(2,4-difluorobenzyl)-6-methyl-4-(p-tolyl)-1H-pyrrolo[2,3-b]pyridin-5-yl)acetic acid] the IC50 was 50 µM. In the case of `Cc1ccc(-c2c([C@H](OC(C)(C)C)C(=O)O)c(C)nc3c2ccn3Cc2ccc(F)cc2F)cc1` [Example 37, (S)-2-(tert-butoxy)-2-(1-(2,4-difluorobenzyl)-6-methyl-4-(p-tolyl)-1H-pyrrolo[2,3-b]pyridin-5-yl)acetic acid], the IC50 is reported as 0.07 µM. With `COc1ccc(Cn2ccc3c(-c4ccc5c(c4)CCCO5)c(C(OC(C)(C)C)C(=O)O)c(C)nc32)cc1` (centres unmarked) [Example 38, 2-(tert-butoxy)-2-(4-(chroman-6-yl)-1-(4-methoxybenzyl)-6-methyl-1H-pyrrolo[2,3-b]pyridin-5-yl)acetic acid] the IC50 was 0.12 µM. Work on `Cc1nc2c(ccn2Cc2ccccc2F)c(-c2ccc3c(c2)CCCO3)c1C(OC(C)(C)C)C(=O)O` (centres unmarked) [Example 39, 2-(tert-butoxy)-2-(4-(chroman-6-yl)-1-(2-fluorobenzyl)-6-methyl-1H-pyrrolo[2,3-b]pyridin-5-yl)acetic acid] yielded an IC50 of 0.068 µM. In the case of `Cc1nc2c(ccn2Cc2cccc(Cl)c2F)c(-c2ccc3c(c2)CCCO3)c1C(OC(C)(C)C)C(=O)O` (centres unmarked) [Example 40, 2-(tert-butoxy)-2-(1-(3-chloro-2-fluorobenzyl)-4-(chroman-6-yl)-6-methyl-1H-pyrrolo[2,3-b]pyridin-5-yl)acetic acid], the IC50 is reported as 0.125 µM. Molecule `Cc1nc2c(ccn2Cc2ccc(C(F)(F)F)o2)c(-c2ccc3c(c2)CCCO3)c1C(OC(C)(C)C)C(=O)O` (centres unmarked) [Example 41] has an IC50 of 0.1 µM. Molecule `Cc1nc2c(ccn2CCc2ccc(F)cc2)c(-c2ccc3c(c2)CCCO3)c1C(OC(C)(C)C)C(=O)O` (centres unmarked) [Example 42, 2-(tert-butoxy)-2-(4-(chroman-6-yl)-1-(4-fluorophenethyl)-6-methyl-1H-pyrrolo[2,3-b]pyridin-5-yl)acetic acid] has an IC50 of 0.58 µM. In the case of `Cc1nc2c(ccn2Cc2ccccc2)c(-c2ccc3c(c2)CCCO3)c1C(OC(C)(C)C)C(=O)O` (centres unmarked) [Example 43, 2-(1-benzyl-4-(chroman-6-yl)-6-methyl-1H-pyrrolo[2,3-b]pyridin-5-yl)-2-(tert-butoxy)acetic acid], the IC50 is reported as 0.084 µM. `Cc1nc2c(ccn2Cc2c(F)cc(F)cc2F)c(-c2ccc3c(c2)CCCO3)c1C(OC(C)(C)C)C(=O)O` (centres unmarked) [Example 44, 2-(tert-butoxy)-2-(4-(chroman-6-yl)-6-methyl-1-(2,4,6-trifluorobenzyl)-1H-pyrrolo[2,3-b]pyridin-5-yl)acetic acid] showed an IC50 of 0.053 µM. Work on `COc1ccc(Cn2ccc3c(-c4ccc5c(c4)CCCO5)c(C(OC(C)(C)C)C(=O)O)c(C)nc32)cc1F` (centres unmarked) [Example 45, 2-(tert-butoxy)-2-(4-(chroman-6-yl)-1-(3-fluoro-4-methoxybenzyl)-6-methyl-1H-pyrrolo[2,3-b]pyridin-5-yl)acetic acid] yielded an IC50 of 0.055 µM. Work on `COc1ccc(F)c(F)c1Cn1ccc2c(-c3ccc(C)cc3)c(C(OC(C)(C)C)C(=O)O)c(C)nc21` (centres unmarked) [Example 46, 2-(tert-butoxy)-2-(1-(2,3-difluoro-6-methoxybenzyl)-6-methyl-4-(p-tolyl)-1H-pyrrolo[2,3-b]pyridin-5-yl)acetic acid] yielded an IC50 of 0.1 µM. `Cc1nc2c(ccn2Cc2ccc(F)cc2Cl)c(-c2ccc3c(c2)CCCO3)c1[C@@H](OC(C)(C)C)C(=O)O` [Example 47, (R)-2-(tert-butoxy)-2-(1-(2-chloro-4-fluorobenzyl)-4-(chroman-6-yl)-6-methyl-1H-pyrrolo[2,3-b]pyridin-5-yl)acetic acid] was tested, and the IC50 was 50 µM. For `Cc1nc2c(ccn2Cc2ccc(F)cc2Cl)c(-c2ccc3c(c2)CCCO3)c1[C@H](OC(C)(C)C)C(=O)O` [Example 48, (S)-2-(tert-butoxy)-2-(1-(2-chloro-4-fluorobenzyl)-4-(chroman-6-yl)-6-methyl-1H-pyrrolo[2,3-b]pyridin-5-yl)acetic acid], the IC50 was 0.03 µM. In the case of `Cc1ccc(-c2c(C(OC(C)(C)C)C(=O)O)c(C)nc3c2ccn3Cc2c(Cl)ccc(F)c2F)cc1` (centres unmarked) [Example 49, 2-(tert-butoxy)-2-(1-(6-chloro-2,3-difluorobenzyl)-6-methyl-4-(p-tolyl)-1H-pyrrolo[2,3-b]pyridin-5-yl)acetic acid], the IC50 is reported as 0.123 µM. In the case of `Cc1nc2c(ccn2Cc2c(Cl)cccc2Cl)c(-c2ccc3c(c2)CCCO3)c1C(OC(C)(C)C)C(=O)O` (centres unmarked) [Example 50, 2-(tert-butoxy)-2-(4-(chroman-6-yl)-1-(2,6-dichlorobenzyl)-6-methyl-1H-pyrrolo[2,3-b]pyridin-5-yl)acetic acid], the IC50 is reported as 0.035 µM. `Cc1nc2c(ccn2Cc2c(F)cccc2F)c(-c2ccc3c(c2)CCCO3)c1C(OC(C)(C)C)C(=O)O` (centres unmarked) [Example 51, 2-(tert-butoxy)-2-(4-(chroman-6-yl)-1-(2,6-difluorobenzyl)-6-methyl-1H-pyrrolo[2,3-b]pyridin-5-yl)acetic acid] showed an IC50 of 0.09 µM.
